{"source": "patent US20240391889A1", "about": "“ANTIMICROBIAL COMPOUNDS AND THE METHODS OF USE” (priority 2021, published 2024)", "key": {"[1]": {"test_system": "Mycobacterium smegmatis", "test": "MIC assay, M. smegmatis (72 h)", "format": "cell-based", "procedure": "The minimum inhibitory concentration (MIC) of peptoids against the ESKAPE bacteria (Enterococcus faecium ATCC 6569; Staphylococcus aureus ATCC 29213; Klebsiella pneumoniae ATCC 13883; Acinetobacter baumanii ATCC 19606; Pseudomonas aeruginosa ATCC 25619; Enterococcus faecalis ATCC 29212; and Escherichia coli ATCC 25922) was determined following CLSI guidelines (CLSI. Methods for Dilution Antimicrobial Susceptibility Tests for Bacteria That Grow Aerobically, 11th Edition. Clinical and Laboratory Standards Institute, 2018). The MIC against Mycobacterium smegmatis was also determined following CLSI guidelines (Woods, G. L. et al. Susceptibility Testing of Mycobacteria, Nocardiae, and Other Aerobic Actinomycetes, 2nd edition. (2011)). Colonies picked from streaked tryptic soy agar plates were added to tryptic soy broth (TSB) to achieve a turbidity of OD600=0.08-0.15. Inoculant was diluted 1:200 into cation adjust Mueller Hinton Broth (CAMHB) and 90 μL was plated into each well of a 96 well black-wall plate. […] Following incubation for the ESKAPE bacteria, PRESTO BLUE (10 μL) was added to each well and incubated at 37° C. for one hour before measuring fluorescence on a SPECTRAMAX M5 plate reader (Ex. 555 nm; Em. 585 nm). Following incubation for M. smegmatis, wells were scored following CLSI guidelines to determine MIC. […]"}, "[2]": {"test_system": "Escherichia coli ATCC 25922", "format": "cell-based", "conditions": "24 h, CAMHB", "text": "(§1) This screening led to the discovery of RMG9-11 (FIG. 2C). The minimum inhibitory concentration (MIC) of resynthesized RMG9-11 was initially determined against C. albicans, C. neoformans, and the ESKAPE bacteria via CSLI guidelines (CLSI. Methods for Dilution Antimicrobial Susceptibility Tests for Bacteria That Grow Aerobically, 11th Edition. Clinical and Laboratory Standards Institute (2018); CLSI. Reference method for broth dilution antifungal susceptibility testing of yeasts; approved standard-third edition; CLSI document M27-A3. Clinical and Laboratory Standards Institute (2008)). […] C. albicans clinical isolates include a reference strain (M1), fluconazole susceptible strains (M4 and M6), and fluconazole resistant strains (M2, M3, M5, and M7). ATCC 64124 is multidrug resistant C. albicans strain that is resistant to amphotericin B, fluconazole, caspofungin, and flucytosine. All MICs were performed under CSLI guidelines in triplicate on at least three different days.\n(§2) The minimum inhibitory concentration (MIC) of peptoids against the ESKAPE bacteria (Enterococcus faecium ATCC 6569; Staphylococcus aureus ATCC 29213; Klebsiella pneumoniae ATCC 13883; Acinetobacter baumanii ATCC 19606; Pseudomonas aeruginosa ATCC 25619; Enterococcus faecalis ATCC 29212; and Escherichia coli ATCC 25922) was determined following CLSI guidelines (CLSI. Methods for Dilution Antimicrobial Susceptibility Tests for Bacteria That Grow Aerobically, 11th Edition. Clinical and Laboratory Standards Institute, 2018). The MIC against Mycobacterium smegmatis was also determined following CLSI guidelines (Woods, G. L. et al. Susceptibility Testing of Mycobacteria, Nocardiae, and Other Aerobic Actinomycetes, 2nd edition. (2011)). Colonies picked from streaked tryptic soy agar plates were added to tryptic soy broth (TSB) to achieve a turbidity of OD600=0.08-0.15. Inoculant was diluted 1:200 into cation adjust Mueller Hinton Broth (CAMHB) and 90 μL was plated into each well of a 96 well black-wall plate. 2-fold serial dilutions of 10× peptoid (10 μL) were added to each well in triplicate and incubated at 37° C. for 24 hours for the ESKAPE bacteria and 72 hours for M. smegmatis. Tetracycline (20 μg/mL) was used as a positive control with DI water was used as a vehicle control. Following incubation for the ESKAPE bacteria, PRESTO BLUE (10 μL) was added to each well and incubated at 37° C. for one hour before measuring fluorescence on a SPECTRAMAX M5 plate reader (Ex. 555 nm; Em. 585 nm). Following incubation for M. smegmatis, wells were scored following CLSI guidelines to determine MIC. This assay was repeated three times on separate days."}, "[3]": {"test_system": "Staphylococcus aureus ATCC 29213", "format": "cell-based", "conditions": "24 h, CAMHB", "text": "as §1, §2"}, "[4]": {"test_system": "Pseudomonas aeruginosa ATCC 25619", "format": "cell-based", "conditions": "ATCC 25619, 24 h", "text": "as §1, §2"}, "[5]": {"test_system": "Enterococcus faecium ATCC 6569", "format": "cell-based", "conditions": "ATCC 6569, 24 h", "text": "as §1, §2"}, "[6]": {"test_system": "Enterococcus faecalis ATCC 29212", "format": "cell-based", "conditions": "24 h, CAMHB", "text": "as §1, §2"}, "[7]": {"test_system": "C. krusie", "format": "cell-based, Candida krusie"}, "[8]": {"test_system": "Acinetobacter baumanii ATCC 19606", "format": "cell-based, Acinetobacter baumannii", "conditions": "ATCC 19606, 24 h", "text": "This screening led to the discovery of RMG9-11 (FIG. 2C). The minimum inhibitory concentration (MIC) of resynthesized RMG9-11 was initially determined against C. albicans, C. neoformans, and the ESKAPE bacteria via CSLI guidelines (CLSI. Methods for Dilution Antimicrobial Susceptibility Tests for Bacteria That Grow Aerobically, 11th Edition. Clinical and Laboratory Standards Institute (2018); CLSI. Reference method for broth dilution antifungal susceptibility testing of yeasts; approved standard-third edition; CLSI document M27-A3. Clinical and Laboratory Standards Institute (2008)). […]\nThe minimum inhibitory concentration (MIC) of peptoids against the ESKAPE bacteria (Enterococcus faecium ATCC 6569; Staphylococcus aureus ATCC 29213; Klebsiella pneumoniae ATCC 13883; Acinetobacter baumanii ATCC 19606; Pseudomonas aeruginosa ATCC 25619; Enterococcus faecalis ATCC 29212; and Escherichia coli ATCC 25922) was determined following CLSI guidelines (CLSI. Methods for Dilution Antimicrobial Susceptibility Tests for Bacteria That Grow Aerobically, 11th Edition. Clinical and Laboratory Standards Institute, 2018). The MIC against Mycobacterium smegmatis was also determined following CLSI guidelines (Woods, G. L. et al. Susceptibility Testing of Mycobacteria, Nocardiae, and Other Aerobic Actinomycetes, 2nd edition. (2011)). […]"}, "[9]": {"test_system": "C. parapsilosis", "format": "cell-based, Candida parapsilosis"}, "[10]": {"test_system": "C. albicans", "format": "cell-based, Candida albicans", "conditions": "planktonic, 24 h, RPMI-MOPS", "text": "as §1\n(§3) The minimum inhibitory concentration (MIC) of peptoids against fungal pathogens C. albicans and C. neoformans was determined following CLSI guidelines (Reference method for broth dilution antifungal susceptibility testing of yeasts; approved standard-third edition; CLSI document M27-A3.” CLSI. 2008.). Colonies were transferred from a streaked YPD plate to 0.85% saline to reach an OD530 between 0.18 and 0.25. This inoculant was diluted 1:100 into RPMI-MOPS and then further diluted 1:20 into RPMI-MOPS. 198 μL of inoculant was seeded into each well of a 96 well black-walled plate. 2-fold serial dilutions of 100× peptoid solutions were prepared in water and 2 μL of peptoid were added to each well in triplicate. […] MIC was defined as the lowest concentration of compound preventing fungal growth. This assay was repeated 3 times on separate days with each compound."}, "[11]": {"test_system": "C. albicans M7", "format": "cell-based, Candida albicans", "conditions": "fluconazole resistant strain", "text": "as §1, §3"}, "[12]": {"test_system": "C. albicans M1", "format": "cell-based, Candida albicans", "conditions": "reference strain", "text": "as §1, §3"}, "[13]": {"test_system": "C. albicans ATCC 64124", "format": "cell-based, Candida albicans", "conditions": "resistant to amphotericin B, fluconazole, caspofungin, flucytosine", "text": "as §1, §3"}, "[14]": {"test_system": "fluconazole resistant and susceptible strains of C. albicans", "format": "cell-based, Candida albicans", "conditions": "regardless of fluconazole susceptibility", "text": "as §1, §3"}, "[15]": {"test_system": "C. albicans M6", "format": "cell-based, Candida albicans", "conditions": "fluconazole susceptible strain", "text": "as §1, §3"}, "[16]": {"test_system": "C. albicans M5", "format": "cell-based, Candida albicans", "conditions": "fluconazole resistant strain", "text": "as §1, §3"}, "[17]": {"test_system": "C. albicans M3", "format": "cell-based, Candida albicans", "conditions": "fluconazole resistant strain", "text": "as §1, §3"}, "[18]": {"test_system": "C. albicans M2", "format": "cell-based, Candida albicans", "conditions": "fluconazole resistant strain", "text": "as §1, §3"}, "[19]": {"test_system": "C. albicans M4", "format": "cell-based, Candida albicans", "conditions": "fluconazole susceptible strain", "text": "as §1, §3"}}, "note": "Numbered stars: 1 amine (or outer) side, 2 acyl side, 3 side chain; on linkers, the order of the positions; unused ones are H or OH. Square brackets hold non-standard residues; d marks the D form. Peptide text beside a SMILES is read from it. N(tridecyl)Gly = CCCCCCCCCCCCCNCC(=O)O; X1 = CC(c1ccccc1)N(CC(=O)[*:2])[*:1]; NFurfurylGly = O=C(O)CNCc1ccco1; Gly(N(CH2)3NH2) = NCCCNCC(=O)O; Nphe = O=C(O)CNCc1ccccc1; NPrGly = CCCNCC(=O)O; Nlys = NCCCCNCC(=O)O", "data": [{"smiles": "CCCCCCCCCCCCCNCC(=O)N(CCC)CC(=O)N(CC(=O)N(CCCCN)CC(=O)N(CC(=O)N(CC(=O)N(CCCN)CC(N)=O)Cc1ccccc1)Cc1ccco1)C(C)c1ccccc1", "note": "(stereo not shown) [RMG9-11] (H-[N(tridecyl)Gly][NPrGly][X1][Nlys][NFurfurylGly][Nphe][Gly(N(CH2)3NH2)]-NH2)", "values": [{"measurement": "MIC M. smegmatis", "setting": "[1]", "result": 6.25, "unit": "µg/mL"}, {"measurement": "MIC E. coli", "setting": "[2]", "result": 6.25, "unit": "µg/mL"}, {"measurement": "MIC S. aureus", "setting": "[3]", "result": 6.25, "unit": "µg/mL"}, {"measurement": "MIC P. aeruginosa", "setting": "[4]", "result": 12.5, "unit": "µg/mL"}, {"measurement": "MIC E. faecium", "setting": "[5]", "result": 3.13, "unit": "µg/mL"}, {"measurement": "MIC E. faecalis", "setting": "[6]", "result": 6.25, "unit": "µg/mL"}, {"measurement": "MIC C. krusie", "setting": "[7]", "result": 3.13, "unit": "µg/mL"}, {"measurement": "MIC A. baumannii", "setting": "[8]", "result": 12.5, "unit": "µg/mL"}, {"measurement": "MIC C. parapsilosis", "setting": "[9]", "result": 6.25, "unit": "µg/mL"}, {"measurement": "MIC C. albicans", "setting": "[10]", "result": 6.25, "unit": "µg/mL"}, {"measurement": "MIC C. albicans M7", "setting": "[11]", "result": 6.25, "unit": "µg/mL"}, {"measurement": "MIC C. albicans M1", "setting": "[12]", "result": 6.25, "unit": "µg/mL"}, {"measurement": "MIC C. albicans ATCC 64124", "setting": "[13]", "result": 6.25, "unit": "µg/mL"}, {"measurement": "MICs against fluconazole resistant and susceptible strains of C. albicans", "setting": "[14]", "result": "6.25 to 12.5", "unit": "µg/mL"}, {"measurement": "MIC C. albicans M6", "setting": "[15]", "result": 6.25, "unit": "µg/mL"}, {"measurement": "MIC C. albicans M5", "setting": "[16]", "result": 12.5, "unit": "µg/mL"}, {"measurement": "MIC C. albicans M3", "setting": "[17]", "result": 12.5, "unit": "µg/mL"}, {"measurement": "MIC C. albicans M2", "setting": "[18]", "result": 12.5, "unit": "µg/mL"}, {"measurement": "MIC C. albicans M4", "setting": "[19]", "result": 12.5, "unit": "µg/mL"}]}]}
